Like-named read-outs stand apart in the source and are kept apart here.

The text below walks through data of patent US12187686B2, “BRD4-JAK2 inhibitors” (H. LEE MOFFITT CANCER CENTER AND RESEARCH INSTITUTE, INC., priority 2018, dated 2025).

One data set has as its system UKE1 cells. The experiment in a line: Growth inhibition of UKE1 cells. The data set is classed as cell-based.
For data set [1], the target named is T1, BRD4 (Homo sapiens, UniProt O60885). The experiment in a line: Differential Scanning Fluorimetry (DSF), increased stability of BRD4 upon ligand binding. The conditions noted are these: for ΔTm at 4 µM: 100 μM protein, 4 μM compound and 2% DMSO; for BRD4 DSF (ΔTm): Table 3. The method, then: DSF=Differential Scanning Fluorimetry; provides a measure of the increased stability of BRD4 upon ligand binding The DSF experiment was run at 100 μM protein, 4 μM compound and 2% DMSO.
(Differential scanning fluorimetry follows unfolding on heating by fluorescence.)

The next data set has as its target JAK2 (Homo sapiens, UniProt O60674). The experiment in a line: JAK2 inhibition (IC50). In kind it is biochemical.
Data set [2] addresses T1, BRD4. The experiment in a line: BRD4 inhibition (IC50). Details: BRD4-1. The data set is classed as binding.
For the next data set, the system named is MM1.S cells. The experiment in a line: Antiproliferative activity in MM1.S cells (sensitive for BRD4 inhibition). The data set is classed as cell-based. The conditions noted are these: Homo sapiens; for GI50 / IC50: MM1.S; for GI50: Table 3, read-out: GI50 (MM1S); for EC50: MM1.S cells (sensitive for BRD4 inhibition). Here is the method:
Cellular activity of promising compounds is assessed using MM.1S and MV4-11 AML cells using c-Myc levels as biomarker (6-12 hr treatment) and antiproliferative activity (48-72 hr treatment) as described (Ciceri et al., Dual kinase-bromodomain inhibitors for rationally designed polypharmacology. Nat Chem Biol 2014).

Another data set relates to c-Myc. The conditions noted are these: MM.1S cells; background, literature; cited from earlier work.
A further data set has as its system MV4-11 AML cells. The conditions noted are these: background, literature; read-out: IC50, proliferation of MV4-11 AML cells; cited from earlier work.
A short description of a further data set: Mouse microsome. The data set is classed as in vitro ADME. The conditions noted are these: Table 1.
Where [3] appears, read: Table 1, read-out: GI50 (UKE1 cells).
Setting [4] is: Table 1, estimated, read-out: Estimated BRD4-1 IC50 (BRD4).
The mark [5] stands for this setting: Table 2, read-out: GI50 (UKE1 cells).

JAK2, sequence (O60674 whole entry): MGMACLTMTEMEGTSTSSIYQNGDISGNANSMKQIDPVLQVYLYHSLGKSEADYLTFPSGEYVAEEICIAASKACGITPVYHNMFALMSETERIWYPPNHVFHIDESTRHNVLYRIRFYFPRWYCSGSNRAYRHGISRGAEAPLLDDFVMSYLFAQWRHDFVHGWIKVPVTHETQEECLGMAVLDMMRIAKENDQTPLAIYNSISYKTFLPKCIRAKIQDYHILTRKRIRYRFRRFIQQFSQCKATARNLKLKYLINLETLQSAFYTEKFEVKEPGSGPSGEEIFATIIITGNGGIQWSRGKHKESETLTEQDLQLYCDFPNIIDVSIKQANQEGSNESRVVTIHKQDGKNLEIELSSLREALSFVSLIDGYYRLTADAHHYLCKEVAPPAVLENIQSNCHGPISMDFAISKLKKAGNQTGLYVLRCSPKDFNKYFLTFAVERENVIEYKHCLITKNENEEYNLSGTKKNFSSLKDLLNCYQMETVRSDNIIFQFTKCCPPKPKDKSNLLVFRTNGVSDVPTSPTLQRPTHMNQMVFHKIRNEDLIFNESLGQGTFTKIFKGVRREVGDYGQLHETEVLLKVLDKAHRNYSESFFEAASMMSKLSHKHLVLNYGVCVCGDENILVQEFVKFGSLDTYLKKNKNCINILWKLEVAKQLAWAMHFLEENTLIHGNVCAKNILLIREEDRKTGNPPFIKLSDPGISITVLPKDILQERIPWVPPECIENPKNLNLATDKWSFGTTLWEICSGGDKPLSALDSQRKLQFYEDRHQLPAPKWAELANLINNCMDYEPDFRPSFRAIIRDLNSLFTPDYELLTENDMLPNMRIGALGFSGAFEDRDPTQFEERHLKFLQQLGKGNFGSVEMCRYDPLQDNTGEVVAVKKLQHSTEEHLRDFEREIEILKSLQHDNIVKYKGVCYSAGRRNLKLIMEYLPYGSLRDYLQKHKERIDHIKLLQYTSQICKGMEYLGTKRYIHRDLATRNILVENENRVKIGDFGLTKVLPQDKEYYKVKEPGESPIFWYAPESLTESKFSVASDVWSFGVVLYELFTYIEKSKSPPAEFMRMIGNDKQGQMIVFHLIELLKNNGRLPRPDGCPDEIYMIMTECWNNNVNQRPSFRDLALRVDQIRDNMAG

For orientation: GI50 means the concentration that inhibits growth by half. Usually ΔTm stands for the shift of the melting midpoint relative to a reference. By EC50 is commonly meant the concentration needed to bring the measured effect to its halfway point. The low end stands for an effect from little substance, the high end for a need for much substance. Take `Cc1cnc(Nc2ccc(N3CCN(C)CC3)c(F)c2)nc1Nc1cccc(CS(=O)(=O)C(C)(C)C)c1` [SR3-159, N^4-(3-((tert-Butylsulfonyl)methyl)phenyl)-N^2-(3-fluoro-4-(4-methylpiperazin-1-yl)phenyl)-5-methylpyrimidine-2,4-diamine]: the GI50 in the data set on UKE1 cells (setting [3]) came to 440 nM; in the data set with UKE1 cells (Table 3, read-out: GI50 (UKE1)), 440 nM; with MM1.S cells, 710 nM. The ΔTm at 4 µM at BRD4 [1] (Table 1) worked out at 8.4 °C. Further, the “BRD4 DSF (ΔTm)” value on BRD4 [1] is 8.4 °C. The IC50 was 9 nM on JAK2 (Table 1, read-out: IC50 (JAK2)); 8 nM on JAK2 (Table 3, read-out: JAK2 (IC50)); 5610 nM at BRD4 [2] (setting [4]); 5600 nM at BRD4 [2] (Table 3, read-out: BRD4 (IC50)). Moreover, the EC50 in the data set with MM1.S cells (Table 1) came out at 710 nM.

Regarding `Cc1cnc(Nc2ccc(C3CCN(C)CC3)c(F)c2)cc1Nc1cccc(CS(=O)(=O)C(C)(C)C)c1` [SY3-036, N^4-(3-((tert-Butylsulfonyl)methyl)phenyl)-N^2-(3-fluoro-4-(1-methylpiperidin-4-yl)phenyl)-5-methylpyridine-2,4-diamine], the “BRD4 DSF (ΔTm)” value on BRD4 [1] was found to be 2.9 °C.

Consider `Cc1cnc(Nc2cc(F)c(N3CCN(C)CC3)c(F)c2)cc1Nc1ccc(Cl)c(NS(=O)(=O)C(C)(C)C)c1`, for which, in the data set with UKE1 cells (setting [5]), the GI50 worked out at 5700 nM. Moreover, the ΔTm at 4 µM at BRD4 [1] (Table 2) turned out to be 6.6 °C. For the same compound, in the data set on MM1.S cells (Table 2), the EC50 was found to be 2830 nM.

Consider `Cc1cnc(Nc2ccc(C3CCN(C)CC3)cc2)cc1Nc1cccc(CS(=O)(=O)C(C)(C)C)c1` [SY3-032, N^4-(3-((tert-Butylsulfonyl)methyl)phenyl)-5-methyl-N^2-(4-(1-methylpiperidin-4-yl)phenyl)pyridine-2,4-diamine], for which the “BRD4 DSF (ΔTm)” value at BRD4 [1] is 2.5 °C.

As for `Cc1cnc(Nc2cc(F)c(C3CCN(C)CC3)c(F)c2)nc1Nc1ccc2c(c1)C(S(=O)(=O)C(C)(C)C)CC2` (stereo not shown) [SR5-157, N^4-(3-(tert-Butylsulfonyl)-2,3-dihydro-1H-inden-5-yl)-N^2-(3,5-difluoro-4-(1-methylpiperidin-4-yl)phenyl)-5-methylpyrimidine-2,4-diamine], the GI50 is 1500 nM in the data set on UKE1 cells (Table 3, read-out: GI50 (UKE1)) and 700 nM with MM1.S cells.

Regarding `CC[C@@H]1C(=O)N(C)c2cnc(Nc3ccc(C(=O)NC4CCN(C)CC4)cc3OC)nc2N1C1CCCC1` [BI2536], the “downregulation of c-Myc” value in the data set on c-Myc is “strong downregulation”.

Turning to `Cc1cnc(Nc2ccc(OCCN3CCCC3)cc2)nc1Nc1cccc(S(=O)(=O)NC(C)(C)C)c1` [TG101348], the “downregulation of c-Myc” value with c-Myc is given as “strong downregulation”. Also, the IC50 in the data set with MV4-11 AML cells was 79 nM.

Consider `Cc1cnc(Nc2cc(F)c(C3CCN(C)CC3)cn2)nc1Nc1ccc2c(c1)C(S(=O)(=O)C(C)(C)C)CC2` (stereo not shown) [SR5-158, N^4-(3-(tert-Butylsulfonyl)-2,3-dihydro-1H-inden-5-yl)-N^2-(4-fluoro-5-(1-methylpiperidin-4-yl)pyridin-2-yl)-5-methylpyrimidine-2,4-diamine], for which the GI50 with UKE1 cells (Table 3, read-out: GI50 (UKE1)) was determined as 3640 nM; in the data set with MM1.S cells, 2300 nM. Moreover, the “BRD4 DSF (ΔTm)” value at BRD4 [1] came to 7.0 °C.

For `Cc1cnc(Nc2ccc(C(=O)NC3CCN(C)CC3)c(F)c2)nc1Nc1cccc(CS(=O)(=O)C(C)(C)C)c1` [SR3-162, 4-((4-((3-((tert-Butylsulfonyl)methyl)phenyl)amino)-5-methylpyrimidin-2-yl)amino)-2-fluoro-N-(1-methylpiperidin-4-yl)benzamide], the ΔTm at 4 µM on BRD4 [1] (Table 1) was determined as 6.9 °C. Also, on BRD4 [1], the “BRD4 DSF (ΔTm)” value was 6.9 °C. In addition, the IC50 on JAK2 (Table 3, read-out: JAK2 (IC50)) came to 2.2 nM; with MM1.S cells (Table 1), 130 nM. Moreover, the GI50 in the data set on MM1.S cells is 130 nM.

Regarding `Cc1cnc(Nc2ccc(N3CCN(C)CC3)c(F)c2)cc1Nc1ccc(Cl)c(NS(=O)(=O)C(C)(C)C)c1`, the GI50 in the data set on UKE1 cells (setting [5]) amounted to 4500 nM. Also, the ΔTm at 4 µM at BRD4 [1] (Table 2) worked out at 6.9 °C. Further, a half-maximal effect in the data set with MM1.S cells (Table 2) (EC50) was put at 3120 nM.

Take `Cc1cnc(Nc2ccc(N3CCN(C)CC3)cc2)nc1Nc1cccc(S(=O)(=O)NC(C)(C)C)c1` [TG101209]: in the data set with c-Myc, the “downregulation of c-Myc” value was “strong downregulation”.

In “Mouse microsome”, `Cc1cnc(Nc2ccc(C3CCN(C)CC3)c(F)c2)nc1Nc1cccc(CS(=O)(=O)C(C)(C)C)c1` [SR3-167, N^4-(3-((tert-Butylsulfonyl)methyl)phenyl)-N^2-(3-fluoro-4-(1-methylpiperidin-4-yl)phenyl)-5-methylpyrimidine-2,4-diamine] had a Mouse microsome of 28%. Besides, the GI50 turned out to be 210 nM in the data set on UKE1 cells (setting [3]); 210 nM with UKE1 cells (Table 3, read-out: GI50 (UKE1)); 140 nM with MM1.S cells. On BRD4 [1] (Table 1), the ΔTm at 4 µM was 9.2 °C. Further, the “BRD4 DSF (ΔTm)” value at BRD4 [1] came out at 9.2 °C. In addition, the IC50 at JAK2 (Table 1, unit given as nm, read-out: IC50 (JAK2)) is 0.87 nM; at JAK2 (Table 3, read-out: JAK2 (IC50)), 1 nM; on BRD4 [2] (setting [4]) it was 704 nM; at BRD4 [2] (Table 3, read-out: BRD4 (IC50)), 700 nM; in the data set on MM1.S cells (Table 1), 140 nM.

Take `Cc1cnc(Nc2ccc(C3CCN(C)CC3)c(F)c2)nc1Nc1ccc2c(c1)C(S(=O)(=O)C(C)(C)C)CC2` (stereo not shown) [SR5-156, N^4-(3-(tert-Butylsulfonyl)-2,3-dihydro-1H-inden-5-yl)-N^2-(3-fluoro-4-(1-methylpiperidin-4-yl)phenyl)-5-methylpyrimidine-2,4-diamine]: the GI50 worked out at 1440 nM in the data set with UKE1 cells (Table 3, read-out: GI50 (UKE1)) and 850 nM in the data set with MM1.S cells. Further, at BRD4 [1], the “BRD4 DSF (ΔTm)” value was found to be 8.7 °C.

The compound `Cc1cnc(Nc2ccc(C3CCN(C)CC3)c(F)c2)nc1Nc1ccc(Cl)c(CS(=O)(=O)C(C)(C)C)c1` [SR3-169, N^4-(3-((tert-Butylsulfonyl)methyl)-4-chlorophenyl)-N^2-(3-fluoro-4-(1-methylpiperidin-4-yl)phenyl)-5-methylpyrimidine-2,4-diamine] registered a Mouse microsome in the data set “Mouse microsome” of 22%. Further, the GI50 was determined as 400 nM in the data set with UKE1 cells (setting [3]); 400 nM in the data set on UKE1 cells (Table 3, read-out: GI50 (UKE1)); 320 nM in the data set on MM1.S cells. On BRD4 [1] (Table 1), the ΔTm at 4 µM came to 9.8 °C. At BRD4 [1], the “BRD4 DSF (ΔTm)” value amounted to 9.8 °C. The IC50 at JAK2 (Table 3, read-out: JAK2 (IC50)) stood at 4.2 nM; on BRD4 [2] (Table 3, read-out: BRD4 (IC50)), 700 nM; with MM1.S cells (Table 1) it was 320 nM.
